Results: patent publication US4565817A, “Theophyllinyl-alkyl-oxadiazoles, process for the preparation thereof and pharmaceutical compositions containing same” (Chinoin Gyogyszer-es Vegyeszeti Termekek Gyara R.T., priority 1982, dated 1986)

Tests used:
in vivo = settings: mouse
guinea pigs = test: Cough relieving against 15% citric acid spray in guinea pigs, one hour after administration; type: in vivo; settings: Cavia porcellus, im, 1 h, one hour after 50 mg/kg i.m., % related to the control, read-out: Cough inhibition Q %
Protocol: Q = Cough relieving induced by 15% citric acid spray in guinea pigs one
hour after administration of the substances (50 mg/kg, i.m.) expressed in
% related to the control.

[1] = system: trachea stria isolated from rabbit; test: Bronchial spasm induced by histamine, in vitro on isolated trachea stria
From the text: (§1) A special group of the compounds of the formula I are those compounds in which R1 stands for alkyl, aralkyl, or aryl. […] Path. […] This activity is significant in relieving cough of the asthmatic type.

[2] = system: spasm caused by acetyl choline or serotonine; test: Spasm caused by acetyl choline or serotonine
From the text: as §1

guinea pig = test: Bronchial spasm induced by histamine, in vivo according to Konzett and Rossler
From the text: as §1

[3] = system: rat paw carrageenin oedema; test: Rat paw carrageenin oedema test; type: in vivo; settings: i.m. administration, compared with indomethacin
From the text: Another special group of the compounds according to the invention are the compounds having an alkyl amino group in place of R1. […] This activity is important in cough relieving accompanied by inflammation in the respiration system.

[4] = General pharmacological activity (cough relieving, bronchodilatory, antiasthmatic, antiinflammatory); settings: in vivo

## Cn1c(=O)c2c(ncn2Cc2noc(CCN3CCCCC3)n2)n(C)c1=O
In vivo; iv
  LD50: 240 mg/kg
In vivo; po
  LD50: 1550 mg/kg
Guinea pigs
  inhibition in vivo at 50 mg/kg: 54.1%

## Cn1c(=O)c2c(ncn2Cc2noc(CCN3CCOCC3)n2)n(C)c1=O
In vivo; iv
  LD50: 230 mg/kg
In vivo; po
  LD50: 1530 mg/kg
Guinea pigs
  inhibition in vivo at 50 mg/kg: 55.4%

## CN1CCN(CCc2nc(Cn3cnc4c3c(=O)n(C)c(=O)n4C)no2)CC1
In vivo; iv
  LD50: 224 mg/kg
In vivo; po
  LD50: 1670 mg/kg
Guinea pigs
  inhibition in vivo at 50 mg/kg: 54.5%

## Cn1c(=O)c2c(ncn2CCc2noc(CCN3CCOCC3)n2)n(C)c1=O
In vivo; iv
  LD50: 217 mg/kg
In vivo; po
  LD50: 2600 mg/kg
Guinea pigs
  inhibition in vivo at 50 mg/kg: 48.6%

## Cn1c(=O)c2c(ncn2CCCc2noc(CCN3CCOCC3)n2)n(C)c1=O
In vivo; iv
  LD50: 220 mg/kg
In vivo; po
  LD50: 1900 mg/kg
Guinea pigs
  inhibition in vivo at 50 mg/kg: 47.7%

## CN1CCN(CCc2nc(CC(O)Cn3cnc4c3c(=O)n(C)c(=O)n4C)no2)CC1 (stereo not shown)
In vivo; iv
  LD50: 215 mg/kg
In vivo; po
  LD50: 1800 mg/kg
Guinea pigs
  inhibition in vivo at 50 mg/kg: 48.6%

## CC(C)NCCc1nc(CCn2cnc3c2c(=O)n(C)c(=O)n3C)no1 [(CH2)2 (CH2)2 NHi.Pr]
In vivo; iv
  LD50: 200 mg/kg
In vivo; po
  LD50: 1750 mg/kg
Guinea pigs
  inhibition in vivo at 50 mg/kg: 54.7%

## COc1ccc2c3c1O[C@H]1[C@@H](O)C=C[C@H]4[C@@H](C2)N(C)CC[C@@]341 [Codeine, reference compound]
In vivo; iv
  LD50: 54 mg/kg
Guinea pigs
  inhibition in vivo at 50 mg/kg: 50%

## Cc1nc(Cn2cnc3c2c(=O)n(C)c(=O)n3C)no1 [Example 1, 7-[(5-methyl-1,2,4-oxadiazol-3-yl)-methyl]-theophylline]
[1]
  bronchial spasm induced by histamine (in vitro): decreases the bronchial spasm induced by histamine
[2]; acetyl choline
  spasm caused by acetyl choline: prevents the spasm caused by acetyl choline or serotonine
[2]; serotonine
  spasm caused by serotonine: prevents the spasm caused by acetyl choline or serotonine
Guinea pigs
  inhibition in vivo at 50 mg/kg: 54.3%
Guinea pig; histamine-induced bronchial spasm, compared with theophylline ethylene diamine
  duration of activity: considerably longer than in case of theophylline ethylene diamine
Guinea pig; in vivo, guinea pig, Konzett and Rossler, histamine
  bronchial spasm induced by histamine (in vivo): decreases the bronchial spasm induced by histamine

## CCN(CC)CCc1nc(Cn2cnc3c2c(=O)n(C)c(=O)n3C)no1 [Example 4, 7-[{5-(2-diethylamino-ethan-1-yl)-1,2,4-oxadiazol-3-yl}-methyl]-theophylline]
[3]
  anti-inflammatory activity: strong (comparable with indomethacin) anti-inflammatory activity
In vivo; iv
  LD50: 215 mg/kg
In vivo; po
  LD50: 1400 mg/kg
Guinea pigs
  inhibition in vivo at 50 mg/kg: 56.7%
[4]
  pharmacological activity in words: cough relieving and bronchodilatory activity

## CCN(CC)CCc1nc(CCCn2cnc3c2c(=O)n(C)c(=O)n3C)no1 [Example 12, 7-[3-5-(2-diethylamino-ethan-1-yl)-1,2,4-oxadiazol-3-yl-propan-1-yl]-theophylline-maleinate]
In vivo; iv
  LD50: 237 mg/kg
In vivo; po
  LD50: 2250 mg/kg
Guinea pigs
  inhibition in vivo at 50 mg/kg: 51.5%

## CCCc1nc(Cn2cnc3c2c(=O)n(C)c(=O)n3C)no1 [Example 18]
In vivo; iv
  LD50: 390 mg/kg
In vivo; po
  LD50: 1400 mg/kg
Guinea pigs
  inhibition in vivo at 50 mg/kg: 51.1%

## c1ccc(C(Cc2noc(CCN3CCCCC3)n2)c2ccccc2)cc1 [Prenoxdiazine, reference compound]
In vivo; iv
  LD50: 34 mg/kg
In vivo; po
  LD50: 920 mg/kg
Guinea pigs
  inhibition in vivo at 50 mg/kg: 44.5%
